Experimental findings from patent publication US8883801B2, “Substituted pyrazolo[1,5-a]pyrimidines as mTOR inhibitors” (Merck Sharp & Dohme Corp., priority 2010, dated 2014) are described below.

One experiment deals with human mTOR enzyme (Homo sapiens, UniProt P42345). Briefly: HTRF mTOR enzyme (kinase) assay. Format: biochemical. As to conditions: 5 μM ATP, 0.2 μM GST-S6K, read-out: hMTOR IC50. As to the method: Methods: An HTRF mTOR enzyme assay was developed to assess the compounds' inhibitory activity. The mTOR assay buffer contained 10 mM Hepes (pH 7.4), 50 mM NaCl, […] BSA, 50 mM […], 10 mM MnCl2 and 0.5 mM DTT. […] 20 ng of human mTOR enzyme (<5% pure was preincubated with the compound for 10 minutes followed by the addition of 5 μM ATP and 0.2 μM GST-S6K (Zhang et al., Protein Expression and Purification 46, pp 414-420 (2006)). The reaction was incubated for one hour at 30° C. Anti phospho p70-S6K(Thr389) (˜1.7 ng/well, anti-phospho-p70S6K-cryptate (Pho-p70S6-Kin-K cat#64CUSKAY, from Cisbio)) and anti GST-XL665 (1:1 Ratio with the substrate GST-S6K, anti GST-XL665, cat#61GSTXLB) Cisbio) were added after the reaction was stopped. The plates were read (PHERAstar, BMG) at least 2 hours after adding the anti phospho p70-S6K and the anti GST-XL665.
IC50 DETERMINATIONS: Dose-response curves were plotted from the inhibition data generated, each in duplicate, from 8 point serial dilutions of inhibitory compounds. Concentration of compound was plotted against the HTRF em665/em590 ratio signal. To generate IC50 values, the dose-response curves were fitted to a standard sigmoidal curve and IC50 values were derived by nonlinear regression analysis.

Experiment [1] concerns mTORC2 activity: phosphorylated AKT Ser473 (pAKT S473) in PC3 cells. Briefly: mTOR target engagement assay, immunofluorescent cell-based, mTORC2 readout. Conditions: Homo sapiens, PC-3, 1.5 h, 90 min treatment. As to the method:
The target engagement of mTOR kinase inhibitors was evaluated using an immunofluorescent cell-based assay. In this assay, inhibition of mTORC1 activity was measured by the reduction in the level of phosphorylated 4E-BP1Thr37/46 (p4E-BP1 Thr37/46), and inhibition of mTORC2 activity was measured by the reduction of phosphorylated AKTSer473 (pAKT S473).
PC3 cells (prostate tumor cell-line that contains a mutation in the tumor suppressor PTEN, that promotes the phosphorylation and activation of AKT and 4E-BP1) were used in the immunofluorescence assay. PC3 cells were seeded on 384 well plates (black clear bottom, Matrix #4332) overnight. PC3 cells were then treated with 40 μl of the serially diluted test compounds (in 5% fetal bovine serum, F12 medium containing 0.25% DMSO) for ninety minutes at 37° C. The test compound solution was removed, and the plates were washed gently two times with 25 μl phosphate buffered saline (PBS). The cells were fixed by adding 25 μl of Prefer reagent (from Anatech LTD, Cat#414, a glyoxal fixative for fixing proteins within a cell) for sixty minutes followed by three washes with PBS. 5% Goat serum in PBS/0.3% Triton was used to block non-specific binding (60 minutes).
The primary antibodies targeting pAKT S473 and p4E-BP1 Thr37/46 were diluted into PBS/0.3% Triton and incubated with the cells overnight at 4° C. The antibodies targeting pAKTS473 (Cat#4085, Cell signaling) and p4E-BP1 Thr37/46 (Cat#2855, Cell signaling) were used at a 1:100 dilution. Plates were washed three times with PBS/0.1% Tween 20 before adding the secondary antibody at a 1:200 dilution. (goat anti-rabbit containing a fluorescent label, Alexa Fluor 488, Cat#A11008, Invitrogen) in PBS/0.3% Triton for 60 minutes.
Finally, the plates were washed three times with PBS/0.1% Tween 20 and the fluorescent intensity was read using an Analyst HT from Molecular Devices. The fluorescent intensity values from the serially diluted compound treatment group were analyzed using the Xlfit 4 program ([…]) (Formula 205: Y=Bottom+(Top-Bottom)/(1+(IC50/X)^Hillslope) to generate the IC50 value. Where Top is the maximum signal without Compound (+DMSO only) and Bottom represents maximum inhibition. Y is the fluorescence at some compound concentration. The control used to determine the fluorescent intensities for 100% pAKT S473 or 100% phosphorylated p4E-BP1 Thr37/46 were measured from untreated wells that contained only DMSO, instead of test compound.

Each structure is given as a SMILES string. Where two headings read alike, the source gives them in different places.

As usually defined, the IC50 is the concentration needed to halve the response being measured.

human mTOR enzyme, sequence (P42345 1360-2549 limits assumed): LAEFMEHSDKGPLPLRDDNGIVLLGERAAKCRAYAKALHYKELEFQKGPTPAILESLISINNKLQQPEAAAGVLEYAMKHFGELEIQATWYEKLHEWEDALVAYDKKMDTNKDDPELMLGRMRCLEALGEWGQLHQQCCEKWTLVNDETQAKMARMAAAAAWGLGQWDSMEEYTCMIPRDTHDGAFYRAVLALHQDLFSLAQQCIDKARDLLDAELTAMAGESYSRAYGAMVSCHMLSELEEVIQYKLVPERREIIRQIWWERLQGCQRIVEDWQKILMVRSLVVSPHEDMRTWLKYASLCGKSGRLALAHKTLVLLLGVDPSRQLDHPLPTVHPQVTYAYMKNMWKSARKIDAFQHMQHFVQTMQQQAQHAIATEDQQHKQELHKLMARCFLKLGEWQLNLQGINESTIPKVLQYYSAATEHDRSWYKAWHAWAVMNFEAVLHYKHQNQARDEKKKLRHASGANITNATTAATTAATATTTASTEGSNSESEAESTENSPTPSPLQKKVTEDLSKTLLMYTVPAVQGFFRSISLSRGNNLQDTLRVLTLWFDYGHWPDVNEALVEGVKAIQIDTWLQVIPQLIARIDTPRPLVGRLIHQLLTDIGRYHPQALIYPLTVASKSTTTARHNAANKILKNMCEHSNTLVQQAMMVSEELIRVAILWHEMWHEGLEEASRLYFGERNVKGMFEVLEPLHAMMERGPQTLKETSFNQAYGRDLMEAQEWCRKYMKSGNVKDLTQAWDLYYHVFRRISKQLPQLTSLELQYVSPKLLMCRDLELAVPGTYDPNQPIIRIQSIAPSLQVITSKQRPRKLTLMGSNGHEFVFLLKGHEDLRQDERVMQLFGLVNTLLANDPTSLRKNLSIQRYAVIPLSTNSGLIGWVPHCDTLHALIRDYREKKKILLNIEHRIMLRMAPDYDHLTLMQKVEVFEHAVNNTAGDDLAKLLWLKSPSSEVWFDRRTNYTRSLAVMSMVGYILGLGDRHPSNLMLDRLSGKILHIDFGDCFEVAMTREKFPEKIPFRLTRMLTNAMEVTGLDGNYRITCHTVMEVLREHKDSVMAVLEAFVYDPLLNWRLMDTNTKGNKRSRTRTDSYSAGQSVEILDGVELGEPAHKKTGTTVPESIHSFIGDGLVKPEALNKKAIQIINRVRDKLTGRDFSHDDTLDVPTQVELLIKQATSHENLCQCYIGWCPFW

Turning to `COCC1(C(=O)O)CCC(c2nc3c(-c4cnn(-c5ccccc5)c4)cnn3c(N)c2Br)CC1` (centres unmarked) [Compound 6, 4-(7-amino-6-bromo-3-(1-phenyl-1H-pyrazol-4-yl)pyrazolo[1,5-a]pyrimidin-5-yl)-1-(methoxymethyl)-cyclohexane-carboxylic acid], the IC50 lay within 0.001 to 0.1 µM at human mTOR enzyme (rated class) and 1 to 2 µM in experiment [1] (rated class).
In the case of `Nc1c(Br)c(C2CCC(O)(CO)CC2)nc2c(-c3cnn(-c4ccccc4)c3)cnn12` (centres unmarked) [Compound 135, 4-(7-amino-6-bromo-3-(1-phenyl-1H-pyrazol-4-yl)pyrazolo[1,5-a]pyrimidin-5-yl)-1-(hydroxymethyl)-cyclohexanol], the IC50 on human mTOR enzyme (rated class) lay in the range of 0.001 to 0.1 µM; in experiment [1] (rated class), 0.1 to 1 µM.
Regarding `COC1(CO)CCC(c2nc3c(-c4ccc(-c5ccccc5)nc4)cnn3c(N)c2Br)CC1` (centres unmarked) [Compound 82, (4-(7-amino-6-bromo-3-(6-phenylpyridin-3-yl)pyrazolo[1,5-a]pyrimidin-5-yl)-1-methoxycyclohexyl)methanol], the 50% inhibitory concentration (IC50) was 0.001 to 0.1 µM on human mTOR enzyme (rated class) and 0.1 to 1 µM in experiment [1] (rated class).
As for `Nc1c(Br)c(C2CCC(O)(CO)CC2)nc2c(-c3cnc4ccc(F)cc4c3)cnn12` (centres unmarked) [Compound 136, 4-(7-amino-6-bromo-3-(6-fluoroquinolin-3-yl)pyrazolo[1,5-a]pyrimidin-5-yl)-1-(hydroxymethyl)cyclohexanol], the results for the IC50 (at human mTOR enzyme (rated class); in experiment [1] (rated class)) were 0.001 to 0.1 µM and 0.1 to 1 µM, respectively.
`CC(=O)c1c(C2CCC(O)(CO)CC2)nc2c(-c3ccc(-c4cccnc4)nc3)cnn2c1N` (centres unmarked) [Compound 143, 1-(3-(2,3′-bipyridin-5-yl)-7-amino-5-(4-hydroxy-4-(hydroxymethyl)-cyclohexyl)-pyrazolo-[1,5-a]pyrimidin-6-yl)ethanone]: the results for the IC50 (on human mTOR enzyme (rated class); in experiment [1] (rated class)) were 0.001 to 0.1 µM and 1 to 2 µM, respectively.
In the same order, the values of `CC(=O)c1c(C2CCC(CO)(C(=O)O)CC2)nc2c(-c3cnn(-c4ccccc4)c3)cnn2c1N` (centres unmarked) [Compound 132, 4-(6-acetyl-7-amino-3-(1-phenyl-1H-pyrazol-4-yl)pyrazolo[1,5-a]pyrimidin-5-yl)-1-(hydroxymethyl)cyclohexanecarboxylic acid] are 0.001 to 0.1 µM and 0.1 to 1 µM.
The corresponding values for `CO[C@]1(CO)CC[C@H](c2nc3c(-c4ccc(-c5ccccc5)nc4)cnn3c(N)c2C(C)=O)CC1` [Compound 85, 1-(7-amino-5-((1S,4S)-4-(hydroxymethyl)-4-methoxycyclohexyl)-3-(6-phenylpyridin-3-yl)pyrazolo[1,5-a]pyrimidin-6-yl)ethanone] are 0.001 to 0.1 µM and 0.1 to 1 µM.
In the case of `COC[C@]1(C(=O)O)CC[C@H](c2nc3c(-c4cnc5ccc(F)cc5c4)cnn3c(N)c2Br)CC1` [Compound 7, (1R,4R)-4-(7-amino-6-bromo-3-(6-fluoroquinolin-3-yl)pyrazolo[1,5-a]pyrimidin-5-yl)-1-(methoxymethyl)-cyclohexane-carboxylic acid], the IC50 at human mTOR enzyme (rated class) lay in the range of 0.001 to 0.1 µM; in experiment [1] (rated class), 1 to 2 µM.
Regarding `COc1ccc(-c2ccc(-c3cnn4c(N)c(C(C)=O)c(C5CCC(O)(CO)CC5)nc34)cn2)cn1` (single isomer, unassigned) [Compound 146, 1-(7-amino-5-(4-hydroxy-4-(hydroxymethyl)-cyclohexyl)-3-(6′-methoxy-2,3′-bipyridin-5-yl)pyrazolo[1,5-a]pyrimidin-6-yl)ethanone], the IC50 lay within 0.001 to 0.1 µM at human mTOR enzyme (rated class) and 2 to 5 µM in experiment [1] (rated class).
In the same order, the values of `CS(=O)(=O)C1(C(=O)O)CCC(c2nc3c(-c4cnn(-c5ccccc5)c4)cnn3c(N)c2Br)CC1` (centres unmarked) [Compound 27, 4-(7-amino-6-bromo-3-(1-phenyl-1H-pyrazol-4-yl)pyrazolo[1,5-a]pyrimidin-5-yl)-1-(methylsulfonyl)cyclohexanecarboxylic acid] are 0.001 to 0.1 µM and 2 to 5 µM.
Consider `COCCO[C@]1(C(=O)O)CC[C@@H](c2nc3c(-c4ccc(-c5cscn5)nc4)cnn3c(N)c2C(C)=O)CC1` [Compound 62, (1R,4R)-4-(6-acetyl-7-amino-3-(6-(thiazol-4-yl)pyridin-3-yl)pyrazolo[1,5-a]pyrimidin-5-yl)-1-(2-methoxyethoxy) cyclohexanecarboxylic acid], for which the values for the concentration for half-maximal inhibition (IC50) (at human mTOR enzyme (rated class); in experiment [1] (rated class)) were 0.001 to 0.1 µM and 0.1 to 1 µM, respectively.
`Nc1c(Br)c([C@H]2CC[C@@](O)(CC(=O)O)CC2)nc2c(-c3cnn(-c4ccccc4)c3)cnn12` [Compound 79, 2-((1R,4R)-4-(7-amino-6-bromo-3-(1-phenyl-1H-pyrazol-4-yl)pyrazolo[1,5-a]pyrimidin-5-yl)-1-hydroxycyclohexyl)-acetic acid]: the half-inhibitory concentration (IC50) at human mTOR enzyme (rated class) was 0.001 to 0.1 µM; in experiment [1] (rated class), 0.1 to 1 µM.
As to `CS[C@]1(C(=O)O)CC[C@H](c2nc3c(-c4cnn(-c5ccccc5)c4)cnn3c(N)c2Br)CC1` [Compound 9, (1S,4S)-4-(7-amino-6-bromo-3-(1-phenyl-1H-pyrazol-4-yl)pyrazolo[1,5-a]pyrimidin-5-yl)-1-(methylthio)-cyclohexane-carboxylic acid], the IC50 is 0.001 to 0.1 µM on human mTOR enzyme (rated class) and 0.1 to 1 µM in experiment [1] (rated class).
`COCCOC[C@]1(C(=O)O)CC[C@@H](c2nc3c(-c4ccc(-c5ccccc5)nc4)cnn3c(N)c2Br)CC1` [Compound 12, (1S,4S)-4-(7-amino-6-bromo-3-(6-phenylpyridin-3-yl)pyrazolo[1,5-a]pyrimidin-5-yl)-1-((2-methoxyethoxy)methyl)cyclohexane-carboxylic acid]: the IC50 on human mTOR enzyme (rated class) was 0.001 to 0.1 µM; in experiment [1] (rated class) it was 2 to 5 µM.
The corresponding values for `CO[C@]1(C(=O)O)CC[C@@H](c2nc3c(-c4cnc5ccc(F)cc5c4)cnn3c(N)c2Br)CC1` [Compound 33, (1R,4R)-4-(7-amino-6-bromo-3-(6-fluoroquinolin-3-yl)pyrazolo[1,5-a]pyrimidin-5-yl)-1-methoxycyclohexane-carboxylic acid] are 0.001 to 0.1 µM and 1 to 2 µM.
In the case of `CC(=O)c1c(C2CCC(CO)(CO)CC2)nc2c(-c3ccc(-c4ccccc4)nc3)cnn2c1N` [Compound 172, 1-(7-amino-5-(4,4-bis(hydroxymethyl)-cyclohexyl)-3-(6-phenylpyridin-3-yl)pyrazolo[1,5-a]pyrimidin-6-yl)ethanone], the IC50 (at human mTOR enzyme (rated class); in experiment [1] (rated class)) was 0.001 to 0.1 µM each time.
Take `COCCOC1(CO)CCC(c2nc3c(-c4cnn(-c5ccccc5)c4)cnn3c(N)c2Br)CC1` (centres unmarked) [Compound 83, (4-(7-amino-6-bromo-3-(1-phenyl-1H-pyrazol-4-yl)pyrazolo[1,5-a]pyrimidin-5-yl)-1-(2-methoxyethoxy)-cyclohexyl)methanol]: the IC50 on human mTOR enzyme (rated class) lay within 0.001 to 0.1 µM; in experiment [1] (rated class) it was 1 to 2 µM.
In the same order, the values of `COCCO[C@]1(C(=O)O)CC[C@H](c2nc3c(-c4cnn(-c5ccccc5)c4)cnn3c(N)c2C(C)=O)CC1` [Compound 54, (1S,4S)-4-(6-acetyl-7-amino-3-(1-phenyl-1H-pyrazol-4-yl)pyrazolo[1,5-a]pyrimidin-5-yl)-1-(2-methoxyethoxy)cyclohexanecarboxylic acid] are 0.001 to 0.1 µM and 5 to 15 µM.
In the case of `Nc1c(Br)c([C@H]2CC[C@]3(CC2)NC(=O)NC3=O)nc2c(-c3ccc(-c4ccccc4)nc3)cnn12` [Compound 72, 8-(7-amino-6-bromo-3-(6-phenylpyridin-3-yl)pyrazolo[1,5-a]pyrimidin-5-yl)-1,3-diazaspiro[4.5]decane-2,4-dione], the IC50 at human mTOR enzyme (numeric value) amounted to 0.0117 µM; in experiment [1] (numeric value) it was 0.87 µM.
